US11439707B2, “Hypocrellin derivative substituted both in a peri-position and in 2-position by amino, preparation method, and application thereof” (priority 2017, dated 2022)

Tests used:
[1] = singlet oxygen efficiency test, reference rose bengal; format: physicochemical
[2] = absorption spectrum (maximum absorption wavelength, molar extinction coefficient); format: physicochemical

Row | SMILES | singlet oxygen yield [1] [%] | maximum absorption wavelength [2] [nm] | molar extinction coefficient [2]
1 | COCCOCCOCCOCCOCCOCCOCCOCCOCCOCCOCCOCCOC(=O)CCCCCNc1c2c3c4c(c(OC)c(=O)c5c(NCCCCCC(=O)OCCOCCOCCOCCOCCOCCOCCOCCOCCOCCOCCOCCOC)cc(OC)c(c6c(OC)cc(O)c(c1=O)c63)c54)CC(C)=C2 [HC-9d-PEG12] | 32 | 625 | 31,500 M^−1cm^−1
2 | COc1c2c3c4c(c(NCCCCCC(=O)O)c(=O)c5c(O)cc(OC)c(c6c(OC)cc(NCCCCCC(=O)O)c(c1=O)c63)c54)C=C(C)C2 [HC-9d] | 26 | 624 | 25,000 M^−1cm^−1
3 | COc1c(O)c2c(=O)cc(OC)c3c4c(OC)cc(=O)c5c(NCC6CCC(C(=O)OCC[N+](C)(C)C)CC6)c(NCC6CCC(C(=O)OCC[N+](C)(C)C)CC6)c6c(c(c1CC(C)=C6)c23)c54 (stereo not drawn) [HC-13a-C2-N^+] | 30 | 622 | 30,500 M^−1cm^−1
4 | COc1c(O)c2c(=O)cc(OC)c3c4c(OC)cc(=O)c5c(NCC6CCC(C(=O)NCCS(=O)(=O)O)CC6)c(NCC6CCC(C(=O)NCCS(=O)(=O)O)CC6)c6c(c(c1CC(C)=C6)c23)c54 (stereo not drawn) [HC-13a-C2-SO3H] | 32 | 622 | 31,000 M^−1cm^−1
5 | COCCOCCNC(=O)C1CCC(CNc2c(NCC3CCC(C(=O)NCCOCCOC)CC3)c3c(=O)cc(OC)c4c5c(OC)cc(=O)c6c(O)c(OC)c7c(c(c2C=C(C)C7)c34)c65)CC1 (stereo not drawn) [HC-13a-NH-PEG1] | 32 | 624 | 30,000 M^−1cm^−1
6 | COCCOC(=O)C1CCC(CNc2c(NCC3CCC(C(=O)OCCOC)CC3)c3c(=O)cc(OC)c4c5c(OC)cc(=O)c6c(O)c(OC)c7c(c(c2C=C(C)C7)c34)c65)CC1 (stereo not drawn) [HC-13a-PEG1] | 32 | 622 | 30,000 M^−1cm^−1
7 | COc1c(NCC2CCC(C(=O)OCCCC[N+](C)(C)C)CC2)c2c(=O)cc(OC)c3c4c(OC)cc(=O)c5c(O)c(NCC6CCC(C(=O)OCCCC[N+](C)(C)C)CC6)c6c(c(c1CC(C)=C6)c23)c54 (stereo not drawn) [HC-13b-C4-N^+] | 36 | 624 | 31,500 M^−1cm^−1
8 | COc1c(NCC2CCC(C(=O)NCCCCS(=O)(=O)O)CC2)c2c(=O)cc(OC)c3c4c(OC)cc(=O)c5c(O)c(NCC6CCC(C(=O)NCCCCS(=O)(=O)O)CC6)c6c(c(c1CC(C)=C6)c23)c54 (stereo not drawn) [HC-13b-C4-SO3H] | 32 | 622 | 30,000 M^−1cm^−1
9 | COCCOCCOCCOCCOCCNC(=O)C1CCC(CNc2c(O)c3c(=O)cc(OC)c4c5c(OC)cc(=O)c6c(NCC7CCC(C(=O)NCCOCCOCCOCCOCCOC)CC7)c(OC)c7c(c(c2C=C(C)C7)c34)c65)CC1 (stereo not drawn) [HC-13b-NH-PEG4] | 32 | 624 | 30,000 M^−1cm^−1
10 | COc1c(NCC2CCC(C(=O)NCCCC[P+](c3ccccc3)(c3ccccc3)c3ccccc3)CC2)c2c(=O)cc(OC)c3c4c(OC)cc(=O)c5c(O)c(NCC6CCC(C(=O)NCCCC[P+](c7ccccc7)(c7ccccc7)c7ccccc7)CC6)c6c(c(c1CC(C)=C6)c23)c54 (stereo not drawn) [HC-13b-NH—C4-PPh3+] | 34 | 626 | 30,500 M^−1cm^−1
11 | COCCOCCOCCOCCOC(=O)C1CCC(CNc2c(O)c3c(=O)cc(OC)c4c5c(OC)cc(=O)c6c(NCC7CCC(C(=O)OCCOCCOCCOCCOC)CC7)c(OC)c7c(c(c2C=C(C)C7)c34)c65)CC1 (stereo not drawn) [HC-13b-PEG4] | 32 | 624 | 30,000 M^−1cm^−1
12 | COc1c2c3c4c(c(NCC5CCC(C(=O)NCCCCCCS(=O)(=O)O)CC5)c(=O)c5c(NCC6CCC(C(=O)NCCCCCCS(=O)(=O)O)CC6)cc(OC)c(c6c(OC)cc(O)c(c1=O)c63)c54)C=C(C)C2 (stereo not drawn) [HC-13c-C6-SO3H] | 36 | 630 | 33,000 M^−1cm^−1
13 | COc1c2c3c4c(c(NCC5CCC(C(=O)NCCCCCC[P+](c6ccccc6)(c6ccccc6)c6ccccc6)CC5)c(=O)c5c(NCC6CCC(C(=O)NCCCCCC[P+](c7ccccc7)(c7ccccc7)c7ccccc7)CC6)cc(OC)c(c6c(OC)cc(O)c(c1=O)c63)c54)C=C(C)C2 (stereo not drawn) [HC-13c-NH—C6-PPh3+] | 38 | 632 | 33,500 M^−1cm^−1
14 | COCCOCCOCCOCCOC(=O)C1CCC(CNc2c3c4c5c(c(OC)c(=O)c6c(O)cc(OC)c(c7c(OC)cc(NCC8CCC(C(=O)OCCOCCOCCOCCOC)CC8)c(c2=O)c74)c65)CC(C)=C3)CC1 (stereo not drawn) [HC-13c-PEG4] | 36 | 632 | 31,500 M^−1cm^−1
15 | COCCOCCOCCOCCOCCOCCOCCOCCOC(=O)C1CCC(CNc2c3c4c5c(c(OC)c(=O)c6c(O)cc(OC)c(c7c(OC)cc(NCC8CCC(C(=O)OCCOCCOCCOCCOCCOCCOCCOCCOC)CC8)c(c2=O)c74)c65)CC(C)=C3)CC1 (stereo not drawn) [HC-13c-PEG8] | 38 | 628 | 32,500 M^−1cm^−1
16 | COc1c2c3c4c(c(NCC5CCC(C(=O)NCCCCS(=O)(=O)O)CC5)c(=O)c5c(O)cc(OC)c(c6c(OC)cc(NCC7CCC(C(=O)NCCCCS(=O)(=O)O)CC7)c(c1=O)c63)c54)C=C(C)C2 (stereo not drawn) [HC-13d-C4-SO3H] | 30 | 624 | 31,000 M^−1cm^−1

Row | SMILES | singlet oxygen yield [1] [%] | maximum absorption wavelength [2] [nm] | molar extinction coefficient [2]
17 | COCCOCCOCCOCCOCCOCCOCCOCCOCCNC(=O)C1CCC(CNc2c3c4c5c(c(OC)c(=O)c6c(NCC7CCC(C(=O)NCCOCCOCCOCCOCCOCCOCCOCCOCCOC)CC7)cc(OC)c(c7c(OC)cc(O)c(c2=O)c74)c65)CC(C)=C3)CC1 (stereo not drawn) [HC-13d-NH-PEG8] | 30 | 625 | 32,500 M^−1cm^−1
18 | COc1c2c3c4c(c(NCC5CCC(C(=O)NCCCC[P+](c6ccccc6)(c6ccccc6)c6ccccc6)CC5)c(=O)c5c(O)cc(OC)c(c6c(OC)cc(NCC7CCC(C(=O)NCCCC[P+](c8ccccc8)(c8ccccc8)c8ccccc8)CC7)c(c1=O)c63)c54)C=C(C)C2 (stereo not drawn) [HC-13d-NH—C4-PPh3+] | 30 | 618 | 31,500 M^−1cm^−1
19 | COCCOCCOCCOCCOCCOCCOCCOCCOCCOCCOCCOCCOCCOCCOCCOCCOC(=O)C1CCC(CNc2c3c4c5c(c(OC)c(=O)c6c(NCC7CCC(C(=O)OCCOCCOCCOCCOCCOCCOCCOCCOCCOCCOCCOCCOCCOCCOCCOCCOC)CC7)cc(OC)c(c7c(OC)cc(O)c(c2=O)c74)c65)CC(C)=C3)CC1 (stereo not drawn) [HC-13d-PEG16] | 30 | 625 | 31,500 M^−1cm^−1
20 | COc1c2c3c4c(c(NCCC5CCC(O)CC5)c(=O)c5c(O)cc(OC)c(c6c(OC)cc(NCCC7CCC(O)CC7)c(c1=O)c63)c54)C=C(C)C2C(C)=O (stereo not drawn) [HC-18d] | 20 | 622 | 23,500 M^−1cm^−1
21 | COc1c2c3c4c(c(NCC5CCC(C(=O)OCCCCCC[P+](c6ccccc6)(c6ccccc6)c6ccccc6)CC5)c(=O)c5c(NCC6CCC(C(=O)OCCCCCC[P+](c7ccccc7)(c7ccccc7)c7ccccc7)CC6)cc(OC)c(c6c(OC)cc(O)c(c1=O)c63)c54)C=C(C)C2 (stereo not drawn) [HC-30c-C6-PPh3^+] | 40 | 632 | 33,500 M^−1cm^−1
22 | COc1c2c3c4c(c(NCC5CCC(C(=O)OCCCC[P+](c6ccccc6)(c6ccccc6)c6ccccc6)CC5)c(=O)c5c(O)cc(OC)c(c6c(OC)cc(NCC7CCC(C(=O)OCCCC[P+](c8ccccc8)(c8ccccc8)c8ccccc8)CC7)c(c1=O)c63)c54)C=C(C)C2 (stereo not drawn) [HC-30d-C4-PPh3^+] | 31 | 630 | 32,500 M^−1cm^−1
23 | CCCCCCNc1c(NCCCCCC)c2c(=O)cc(OC)c3c4c(OC)cc(=O)c5c(O)c(OC)c6c(c(c1C=C(C)C6)c23)c54 [HC-34a] | 30 | 625 | 31,500 M^−1cm^−1
24 | CCCCCCNc1c(O)c2c(=O)cc(OC)c3c4c(OC)cc(=O)c5c(NCCCCCC)c(OC)c6c(c(c1C=C(C)C6)c23)c54 [HC-34b] | 32 | 620 | 31,500 M^−1cm^−1
25 | CCCCCCNc1c2c3c4c(c(OC)c(=O)c5c(O)cc(OC)c(c6c(OC)cc(NCCCCCC)c(c1=O)c63)c54)CC(C)=C2 [HC-34c] | 38 | 624 | 32,500 M^−1cm^−1
26 | CCCCCCNc1c2c3c4c(c(OC)c(=O)c5c(NCCCCCC)cc(OC)c(c6c(OC)cc(O)c(c1=O)c63)c54)CC(C)=C2 [HC-34d] | 32 | 628 | 32,000 M^−1cm^−1
27 | COCCOC(=O)C1(Nc2c(NC3(C(=O)OCCOC)CC3)c3c(=O)cc(OC)c4c5c(OC)cc(=O)c6c(O)c(OC)c7c(c(c2C=C(C)C7)c34)c65)CC1 [HC-35a-PEG1] | 32 | 622 | 31,000 M^−1cm^−1
28 | COc1c(O)c2c(=O)cc(OC)c3c4c(OC)cc(=O)c5c(NO)c(NO)c6c(c(c1CC(C)=C6)c23)c54 [HC-37a] | 32 | 620 | 30,500 M^−1cm^−1
29 | COc1c(NO)c2c(=O)cc(OC)c3c4c(OC)cc(=O)c5c(O)c(NO)c6c(c(c1CC(C)=C6)c23)c54 [HC-37b] | 31 | 622 | 31,500 M^−1cm^−1
30 | COc1c2c3c4c(c(NO)c(=O)c5c(NO)cc(OC)c(c6c(OC)cc(O)c(c1=O)c63)c54)C=C(C)C2 [HC-37c] | 36 | 624 | 34,000 M^−1cm^−1
31 | COc1c2c3c4c(c(NO)c(=O)c5c(O)cc(OC)c(c6c(OC)cc(NO)c(c1=O)c63)c54)C=C(C)C2 [HC-37d] | 33 | 620 | 32,000 M^−1cm^−1
